In patent EP4782453A1 (Beyang Therapeutics Co., Ltd., priority 2023, dated 2025):

Experiments:
Menin-MLL = molecular target: T1, Menin-MLL (Homo sapiens, UniProt O00255); experiment: Inhibitory activity against Menin-MLL binding (fluorescence polarization); conditions: fluorescence polarization; 150 nM His-Menin, 15 nM FITC-MLL; 25°C for 60 min; read-out: Menin-MLL IC50
T1 construct: His-Menin (M1-L615 end); purchased BIORTUS BP9210
T1 sequence (O00255 1-615 isoform O00255-1): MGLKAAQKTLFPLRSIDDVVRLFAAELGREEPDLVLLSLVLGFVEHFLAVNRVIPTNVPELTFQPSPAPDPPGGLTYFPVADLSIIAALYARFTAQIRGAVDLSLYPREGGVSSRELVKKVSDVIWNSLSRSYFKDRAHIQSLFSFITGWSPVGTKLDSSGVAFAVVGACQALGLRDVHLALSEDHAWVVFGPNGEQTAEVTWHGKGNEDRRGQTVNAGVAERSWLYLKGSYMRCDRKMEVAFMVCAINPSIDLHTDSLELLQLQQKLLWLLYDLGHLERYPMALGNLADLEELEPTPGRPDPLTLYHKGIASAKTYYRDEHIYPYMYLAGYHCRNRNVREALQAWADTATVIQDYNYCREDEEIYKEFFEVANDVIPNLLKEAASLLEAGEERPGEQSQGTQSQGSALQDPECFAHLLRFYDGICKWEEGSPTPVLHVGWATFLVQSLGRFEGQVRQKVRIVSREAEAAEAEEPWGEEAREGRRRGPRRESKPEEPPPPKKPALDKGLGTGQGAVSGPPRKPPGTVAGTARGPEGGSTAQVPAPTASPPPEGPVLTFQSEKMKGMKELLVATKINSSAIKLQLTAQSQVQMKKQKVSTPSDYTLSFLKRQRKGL
Method in brief: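 His-Menin (M1-L615, 150 nM) preincubated with compound 15 min at 25 °C in HEPES pH 7.5, 50 mM NaCl, 1 mM DTT, 0.01% BSA, then 15 nM FITC-MLL4-43 peptide added for 60 min at 25 °C. Fluorescence polarization read; IC50 from 4-parameter logistic fit, duplicates.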

MEIS1 gene expression = experiment: Inhibition of MEIS1 gene expression in human tumor cells (qRT-PCR), OCI-AML3; type: cell-based; conditions: OCI-AML-3, OCI-AML3 (carrying NPM1c), 48 hours of incubation, relative MEIS1 gene expression vs GAPDH
From the text: Experimental Example 3: Evaluation of Inhibitory Activity of Compounds Against MEISI Gene Expression in Human Tumor Cells
The effect of test samples on MEIS1 gene expression in vitro cultured human leukemia cells MV-4-11 (carrying MLL-AF4), MOLM-13 (carrying MLL-AF9), and OCI-AML3 (carrying NPM1c) was studied.
• Human acute lymphoblastic leukemia cells MV-4-11, purchased from American Type Culture Collection, Catalog Number: CRL-9591; • Human acute myeloid leukemia cells MOLM-13, purchased from COBIOER BIOSCIENCES CO., LTD, Catalog Number: CBP60678; • Human acute myeloid leukemia cells OCI-AML3, purchased from COBIOER BIOSCIENCES CO., LTD, Catalog Number: CBP60817; • MEIS1 Primer/Probe, purchased from IDT, Catalog Number: 40831613; and • GAPDH Primer/Probe, purchased from IDT, Catalog Number: 22214836.
MV-4-11 cells were cultured in an IMDM medium containing 10% fetal bovine serum, or MOLM-13 and OCI-AML3 cells were cultured in an RPMI-1640 medium containing 20% fetal bovine serum, each supplemented with 100 U·mL^-1 penicillin and 100 µg·mL^-1 streptomycin. These cells were cultured at 37°C with 5% CO2. The suspensions of individual cell lines were prepared in their respective media and seeded into 48-well plates at a density of 100,000 cells/well. On the day of the experiment, a compound stock solution was diluted in a 6-fold gradient using DMSO. Each gradient-diluted stock solution was then further diluted 250-fold with a complete medium to prepare a series of working solutions at different concentrations. Next, 250 µL of working solution (containing the complete medium with a 2-fold serial concentration of the test compound or a positive control compound, or containing a control complete medium) was added to each well. After 48 hours of incubation, cells from the 48-well plate were collected into 1 mL centrifuge tubes, centrifuged at 1000 rpm for 5 minutes, and the complete medium was removed. Cells were washed twice with 1 mL PBS and centrifuged to remove PBS. Total RNA was extracted using the RNeasy Mini Kit (250) (QIAGEN, 74106). The threshold cycle (Ct) value for gene expression was determined using the HiScript II U+ One Step qRT-PCR Probe Kit (Vazyme) (Vazyme, Q223-01), with 3 replicates per sample. The prepared reaction mixture was placed in an ABI 7500 real-time PCR instrument, and the reaction proceeded following the procedures below. [formula]
Next, for the relative MEIS1 gene expression, the concentration (EC50) that inhibits 50% of relative MEIS1 gene expression was calculated using GraphPad Prism 8 software.

Row | Compound | IC50 (Menin-MLL) [nM] | EC50 (MEIS1 gene expression) [nM]
1 | CCN(C(=O)c1cc(F)ccc1-c1cc(C2CN([C@@H](C)C3CCN(C(=O)CO)CC3)C2)cn2c(C)nc(F)c12)C(C)C [Example 284-2] | 2 | 5.8
2 | Cc1nc(F)c2c(-c3ccc(F)cc3C(=O)N3CCOC[C@H]3C)cc(C3CN([C@H](CO[C@@H]4CCCN(C)C4)C(C)C)C3)cn12 [Example 297-1, (3R)-4-[5-fluoro-2-(1-fluoro-3-methyl-6-{1-[(2S)-3-methyl-1-{[(3R)-1-methylpiperidin-3-yl]oxy}butan-2-yl]azacyclobutan-3-yl}imidazo[1,5-a]pyridin-8yl)benzoyl]-3-methylmorpholine] | 10.8 | 34
3 | CCN(C(=O)c1cc(F)ccc1-c1cc(C2CN([C@H](CCCN3CCN(C(C)=O)CC3)C(C)C)C2)cn2c(C)ncc12)C(C)C [Example 311-2, 2-(6-{1-[(3R)-6-(4-acetylpiperazin-1-yl)-2-methylhexan-3-yl]azacyclobutan-3-yl}-3-methylimidazo[1,5-a]pyridin-8-yl)-N-ethyl-5-fluoro-N-(isopropyl)benzamide] | 8.5 | 23
4 | CCN(C(=O)c1cc(F)ccc1-c1cc(C2CN([C@H](CCCN3CCN(C)CC3)C(C)C)C2)cn2c(C)nc(F)c12)C(C)C [Example 312-2] | 2.8 | 3.9
5 | Cc1nc(F)c2c(-c3ccc(F)cc3C(=O)N3CCOC[C@H]3C)cc(C3CN([C@H](CCCN4CCC(F)CC4)C(C)C)C3)cn12 [Example 314] | 2.5 | 8.9
6 | CCN1CCN(CCC[C@H](C(C)C)N2CC(c3cc(-c4ccc(F)cc4C(=O)N4CCOC[C@H]4C)c4cnc(C)n4c3)C2)CC1 [Example 324-2] | 2.5 | 9.5
7 | Cc1nc(F)c2c(-c3ccc(F)cc3C(=O)N3CCOC[C@H]3C)cc(C3CN([C@H](CN4CCN(C)CC4)C(C)C)C3)cn12 [Example 368-2, (3R)-4-[5-fluoro-2-(1-fluoro-3-methyl-6-{1-[(2S)-3-methyl-1-(4-methylpiperazin-1-yl)butan-2-yl]azacyclobutan-3-yl}imidazo[1,5-a]pyridin-8-yl)benzoyl]-3-methylmorpholine] | 4.3 | 17
8 | CCN(C(=O)c1cc(F)ccc1-c1cc(C2CN([C@H](CCCN3C4COCC3C4)C(C)C)C2)cn2c(C)ncc12)C(C)C [Example 423] | 1.7 | 6.1

Now from value to compound:

Row | IC50 (Menin-MLL) [nM] | EC50 (MEIS1 gene expression) [nM] | Compound
9 | 3.3 | 12 | CCN1CCN(CCC[C@H](C(C)C)N2CC(c3cc(-c4ccc(F)cc4C(=O)N4CCOC[C@H]4C)c4c(F)nc(C)n4c3)C2)CC1 [Example 277]
10 | 15 | 34 | CC[C@@H](C1CCN(C(C)=O)CC1)N1CC(c2cc(-c3ccc(F)cc3C(=O)N3CCOC[C@H]3C)c3c(F)nc(C)n3c2)C1 [Example 280-1, 1-{4-[(1S)-1-[3-(1-fluoro-8-{4-fluoro-2-[(3R)-3-methylmorpholin-4-carbonyl]phenyl}-3-methylimidazo[1,5-a]pyridin-6-yl)azacyclobutan-1-yl]propyl]piperidin-1-yl}ethan-1-one]
11 | 3.1 | 31 | Cc1nc(F)c2c(-c3ccc(F)cc3C(=O)N3CCOC[C@H]3C)cc(C3CN([C@H](CCCN4CCC[C@H](O)C4)C(C)C)C3)cn12 [Example 293]
12 | 3.6 | 12 | CCN(C(=O)c1cc(F)ccc1-c1cc(C2CN([C@H](CCCN3CCN(C)CC3)C(C)C)C2)cn2c(C)ncc12)C(C)C [Example 310-2, N-ethyl-5-fluoro-2-(3-methyl-6-{1-[(3R)-2-methyl-6-(4-methylpiperazin-1-yl)hexan-3-yl]azacyclobutan-3-yl}imidazo[1,5-a]pyridin-8-yl)-N-(isopropyl)benzamide]
13 | 3.8 | 32 | Cc1nc(F)c2c(-c3ccc(F)cc3C(=O)N3CCOC[C@H]3C)cc(C3CN([C@H](CO[C@H]4CCCN(C)C4)C(C)C)C3)cn12 [Example 321-2, (3R)-4-[5-fluoro-2-(1-fluoro-3-methyl-6-{1-[(2S)-3-methyl-1-{[(3S)-1-methylpiperidin-3-yl]oxy}butan-2-yl]azacyclobutan-3-yl}imidazo[1,5-a]pyridin-8yl)benzoyl]-3-methylmorpholine]
14 | 2.7 | 17 | Cc1ncc2c(-c3ccc(F)cc3C(=O)N3CCOC[C@H]3C)cc(C3CN([C@H](CCCN4CCN(C)CC4)C(C)C)C3)cn12 [Example 323-2, (3R)-4-[5-fluoro-2-(3-methyl-6-{1-[(3R)-2-methyl-6-(4-methylpiperazin-1-yl)hexan-3-yl]azacyclobutan-3-yl}imidazo[1,5-a]pyridin-8-yl)benzoyl]-3-methylmorpholine]
15 | 2.6 | 21 | Cc1nc(F)c2c(-c3ccc(F)cc3C(=O)N3CCOC[C@H]3C)cc(C3CN([C@H](CCCN4C[C@H]5C[C@@H]4CO5)C(C)C)C3)cn12 [Example 353, (1R,4R)-5-[(4R)-4-[3-(1-fluoro-8-{4-fluoro-2-[(3R)-3-methylmorpholin-4-carbonyl]phenyl}-3-methylimidazo[1,5-a]pyridin-6-yl)azacyclobutan-1-yl]-5-methylhexyl]-2-oxa-5-azabicyclo[2.2.1]heptane]
16 | 1.8 | 7.5 | CCN(C(=O)c1cc(F)ccc1-c1cc(C2CN([C@H](CCCN3C[C@H]4C[C@@H]3CO4)C(C)C)C2)cn2c(C)ncc12)C(C)C [Example 379, N-ethyl-5-fluoro-2-(3-methyl-6-{1-[(3R)-2-methyl-6-[(1R,4R)-2-oxa-5-azabicyclo[2.2.1]heptan-5-yl]hexan-3-yl]azacyclobutan-3-yl}imidazo[1,5-a]pyridin-8-yl)-N-(isopropyl)benzamide]
17 | 1.9 | 13 | CCN(C(=O)c1cc(F)ccc1-c1cc(C2CN([C@H](CCCN3CCN(CCO)CC3)C(C)C)C2)cn2c(C)ncc12)C(C)C [Example 398, N-ethyl-5-fluoro-2-(6-{1-[(3R)-6-[4-(2-hydroxyethyl)piperazin-1-yl]-2-methylhexan-3-yl]azacyclobutan-3-yl}-3-methylimidazo[1,5-a]pyridin-8-yl)-N-(isopropyl)benzamide]
18 | 3.9 | 33 | CCN(C(=O)c1cc(F)ccc1-c1cc(C2CN([C@H](CN3CCN(CCO)CC3)C(C)C)C2)cn2c(C)ncc12)C(C)C [Example 431, N-ethyl-5-fluoro-2-(6-{1-[(2S)-1-[4-(2-hydroxylethyl)piperazin-1-yl]-3-methylbutan-2-yl]azacyclobutan-3-yl}-3methylimidazo[1,5-a]pyridin-8-yl)-N-(isopropyl)benzamide]
